Data on 5 compounds can be found in ChEMBL document CHEMBL1158306, “Chlorinated annonaceous acetogenins and their bioactivities” (J Nat Prod, 1996).

One data set relates to A498. As to the kind of experiment: Cytotoxicity against human A498 cells after 7 days by MTT assay. The note with it: A498, 168 h, read-out: ED50 (the source's name). In kind it is functional. For orientation: Tetrazolium assays rely on reduction of a dye to a coloured formazan, in cell work by metabolically active cells.
A further data set concerns A549. As to the kind of experiment: Cytotoxicity against human A549 cells after 7 days by MTT assay. Type of data set: functional. Conditions: A549, 168 h, read-out: ED50 (the source's name).
The subject of another data set is HT-29. As to the kind of experiment: Cytotoxicity against human HT29 cells after 7 days by MTT assay. In kind it is functional. Conditions: for EC50: Homo sapiens, HT-29, 168 h, read-out: ED50 (the source's name).
The nature of data set [1]: Toxicity in brine shrimp larvae. Type of data set: organism-based. Conditions: artemia, in vivo.
The subject of another data set is MIA PaCa-2. As to the kind of experiment: Cytotoxicity against human MIAPaCa2 cells after 7 days by MTT assay. In kind it is functional. The note with it: MIA PaCa-2, 168 h, read-out: ED50 (the source's name).
The next data set relates to PC-3. As to the kind of experiment: Cytotoxicity against human PC3 cells after 7 days by MTT assay. Type of data set: functional. The note with it: PC-3, 168 h, read-out: ED50 (the source's name).
For the next data set, the system named is MCF7. As to the kind of experiment: Cytotoxicity against human MCF7 cells after 7 days by MTT assay. In kind it is functional. The note with it: MCF7, 168 h, read-out: ED50 (the source's name).

SMILES strings stand for the structures. In brackets after ≈: the same amount, converted by molar mass. Where only a bound is given, the exact number is not on record here.

What is called LC50 is the concentration that kills 50% of the test population. Low values mean greater toxicity, high ones lower toxicity. For the compound `CCCCCCCCCCCCCCC(Cl)[C@@H]1CC[C@H]([C@@H]2CC[C@@H](CCCCC[C@H](Cl)CC3=C[C@H](C)OC3=O)O2)O1` (stereo not given in full), the EC50 with A498 is 2.47 µg/mL (≈ 4.01 µM); with A549, 2.39 µg/mL (≈ 3.88 µM); in the data set on HT-29, more than 10 µg/mL; in the data set on MIA PaCa-2, 1.16 µg/mL (≈ 1.88 µM); in the data set with PC-3 it was 0.755 µg/mL (≈ 1.23 µM); in the data set with MCF7, more than 10 µg/mL. Further, the 50% lethal concentration (LC50) in data set [1] turned out to be 31.9 µg/mL (≈ 51.8 µM).
Consider `CCCCCCCCCCCCCC[C@@H](O)[C@H](O)CC[C@H](O)[C@@H]1CC[C@@H](CCCCC[C@H](Cl)CC2=C[C@H](C)OC2=O)O1`, for which the EC50 in the data set on A498 is more than 10 µg/mL; in the data set with A549, more than 10 µg/mL; in the data set with HT-29 it was 0.38 µg/mL (≈ 0.618 µM); in the data set on MIA PaCa-2, more than 10 µg/mL; with PC-3, more than 10 µg/mL; with MCF7 it was 5.74 µg/mL (≈ 9.33 µM). This compound displayed an LC50 in data set [1] of 54.6 µg/mL (≈ 88.7 µM).
Regarding `CCCCCCCCCCCCCC[C@H](O)[C@@H]1CC[C@@H]([C@@H]2CC[C@@H](CCCCC[C@@H](O)CC3=C[C@H](C)OC3=O)O2)O1` [ASIMILOBIN], the EC50 with HT-29 was found to be 0.063 µg/mL (≈ 0.109 µM).
For the compound `COc1cccc2c1C(=O)c1c(O)c3c(c(O)c1C2=O)C[C@@](O)(C(=O)CO)C[C@@H]3O[C@H]1C[C@H](N)[C@H](O)[C@H](C)O1` [DOXORUBICIN], the EC50 stood at 0.00649 µg/mL (≈ 0.0119 µM) with A498; 0.0243 µg/mL (≈ 0.0447 µM) in the data set with A549; 0.0346 µg/mL (≈ 0.0637 µM) with HT-29; 0.0079 µg/mL (≈ 0.0145 µM) in the data set with MIA PaCa-2; 0.0262 µg/mL (≈ 0.0482 µM) in the data set with PC-3; 0.209 µg/mL (≈ 0.385 µM) with MCF7.
Turning to `CCCCCCCCCCCCCC[C@@H](O)[C@H](O)CC[C@H](O)[C@@H]1CC[C@@H](CCCCC[C@@H](O)CC2=C[C@H](C)OC2=O)O1` [GIGANTETROCIN A], the EC50 with A549 is 0.25 µg/mL (≈ 0.419 µM); in the data set with MCF7, 0.63 µg/mL (≈ 1.06 µM). Besides, in the data set on HT-29, the ED50 is listed as 4.1 ×10⁻⁵ ug/ml. In data set [1], this compound returned a 50% lethal concentration (LC50) of 2.6 µg/mL (≈ 4.36 µM).
